Results reported in PubChem BioAssay AID1918995 (Molecular Pharmacology Branch, DTP, NCI, 2023).

System: 324938-238-R-J1-PDC complex spheroid growth, % test/control
Experiment: Anticancer human tumor 324938-238-R-J1-PDC patient-derived bladder carcinoma cell line growth inhibition [AhR]
Settings: for IC50: curve of first compound; for viability, T/C: stronger effect = lower value
In short: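 Spheroids combined tumor cells with HUVEC endothelial cells and human MSCs as stroma. AhR antagonists were paired with standard or investigational drugs, each dosed in half-log steps down from near clinical Cmax, or from 10 microM where Cmax was unknown.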

[1] = second compound 0.1 µM, first compound 0.00949 µM
[2] = second compound 0.1 µM, first compound 0.03 µM
[3] = second compound 0.1 µM, first compound 0.0949 µM
[4] = second compound 0.1 µM, first compound 0.3 µM
[5] = second compound 0.316 µM, first compound 0.00949 µM
[6] = second compound 0.316 µM, first compound 0.03 µM
[7] = second compound 0.316 µM, first compound 0.0949 µM
[8] = second compound 0.316 µM, first compound 0.3 µM
[9] = second compound 1 µM, first compound 0.00949 µM
[10] = second compound 1 µM, first compound 0.03 µM
[11] = second compound 1 µM, first compound 0.0949 µM
[12] = second compound 1 µM, first compound 0.3 µM
[13] = second compound 3.16 µM, first compound 0.00949 µM
[14] = second compound 3.16 µM, first compound 0.03 µM
[15] = second compound 3.16 µM, first compound 0.0949 µM
[16] = second compound 3.16 µM, first compound 0.3 µM
[17] = second compound 10 µM, first compound 0.00949 µM
[18] = second compound 10 µM, first compound 0.03 µM
[19] = second compound 10 µM, first compound 0.0949 µM
[20] = second compound 10 µM, first compound 0.3 µM
[21] = second compound 0.1 µM, first compound 0.0316 µM
[22] = second compound 0.1 µM, first compound 0.1 µM
[23] = second compound 0.1 µM, first compound 0.316 µM
[24] = second compound 0.1 µM, first compound 1 µM
[25] = second compound 0.1 µM, first compound 3.16 µM
[26] = second compound 0.1 µM, first compound 10 µM
[27] = second compound 0.316 µM, first compound 0.0316 µM
[28] = second compound 0.316 µM, first compound 0.1 µM
[29] = second compound 0.316 µM, first compound 0.316 µM
[30] = second compound 0.316 µM, first compound 1 µM
[31] = second compound 0.316 µM, first compound 3.16 µM
[32] = second compound 0.316 µM, first compound 10 µM
[33] = second compound 1 µM, first compound 0.0316 µM
[34] = second compound 1 µM, first compound 0.1 µM
[35] = second compound 1 µM, first compound 0.316 µM
[36] = second compound 1 µM, first compound 1 µM
[37] = second compound 1 µM, first compound 3.16 µM
[38] = second compound 1 µM, first compound 10 µM
[39] = second compound 3.16 µM, first compound 0.0316 µM
[40] = second compound 3.16 µM, first compound 0.1 µM
[41] = second compound 3.16 µM, first compound 0.316 µM
[42] = second compound 3.16 µM, first compound 1 µM
[43] = second compound 3.16 µM, first compound 3.16 µM
[44] = second compound 3.16 µM, first compound 10 µM
[45] = second compound 10 µM, first compound 0.0316 µM
[46] = second compound 10 µM, first compound 0.1 µM
[47] = second compound 10 µM, first compound 0.316 µM
[48] = second compound 10 µM, first compound 1 µM
[49] = second compound 10 µM, first compound 3.16 µM
[50] = second compound 10 µM, first compound 10 µM
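Note: spheroids exposed to agents for seven days before viability read.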

In the case of CC(C)CC(NC(=O)C(Cc1ccccc1)NC(=O)c1cnccn1)B(O)O (stereo not given) + Cc1cncc(-c2nc(NCCc3c[nH]c4ccccc34)c3ncn(C(C)C)c3n2)c1, the IC50 (second compound 0.1 µM) is reported as 4.75 nM, the IC50 (second compound 0.316 µM) is reported as 4.16 nM and the IC50 (second compound 1 µM) is reported as 4.21 nM. For the same compound, the IC50 (second compound 3.16 µM) was 4.41 nM, the IC50 (second compound 10 µM) was less than 0.949 nM and the viability, T/C (second compound 0.1 µM, first compound 0.000949 µM) was 140%. The viability, T/C (second compound 0.1 µM, first compound 0.003 µM) was 82.9%, the viability, T/C [1] was 0.38% and the viability, T/C [2] was 0.6%. For the same compound, the viability, T/C [3] was 0.37%, the viability, T/C [4] was 0.39% and the viability, T/C (second compound 0.316 µM, first compound 0.000949 µM) was 123%. For the same compound, the viability, T/C (second compound 0.316 µM, first compound 0.003 µM) was 69.4%, the viability, T/C [5] was 0.83% and the viability, T/C [6] was 2.26%. For the same compound, the viability, T/C [7] was 1.05%, the viability, T/C [8] was 0.73% and the viability, T/C (second compound 1 µM, first compound 0.000949 µM) was 107%. The viability, T/C (second compound 1 µM, first compound 0.003 µM) was 70.6%, the viability, T/C [9] was 0.67% and the viability, T/C [10] was 0.27%. For the same compound, the viability, T/C [11] was 0.57%, the viability, T/C [12] was 0.35% and the viability, T/C (second compound 3.16 µM, first compound 0.000949 µM) was 109%. For the same compound, the viability, T/C (second compound 3.16 µM, first compound 0.003 µM) was 74.3%, the viability, T/C [13] was 1.45% and the viability, T/C [14] was 0.48%. It also gave a viability, T/C [15] of 0.28%, a viability, T/C [16] of 0.4% and a viability, T/C (second compound 10 µM, first compound 0.000949 µM) of 5.75%. It also gave a viability, T/C (second compound 10 µM, first compound 0.003 µM) of 2.91%, a viability, T/C [17] of 1.36% and a viability, T/C [18] of 0.48%. The viability, T/C [19] was 0.49% and the viability, T/C [20] was 0.42%.

NS(=O)(=O)OCC1CC(n2ccc3c(NC4CCc5ccccc54)ncnc32)CC1O (stereo not given) + Cc1ccccc1N=Nc1ccc(NC(=O)c2ccnn2C)c(C)c1 was tested, and the IC50 (second compound 0.1 µM) was 1360 nM, the IC50 (second compound 0.316 µM) was 1070 nM and the IC50 (second compound 1 µM) was 1040 nM. For the same compound, the IC50 (second compound 3.16 µM) was 875 nM, the IC50 (second compound 10 µM) was 929 nM and the viability, T/C [21] was 85.5%. The viability, T/C [22] was 103%, the viability, T/C [23] was 79.7% and the viability, T/C [24] was 59%. It also gave a viability, T/C [25] of 28.9%, a viability, T/C [26] of 27.7% and a viability, T/C [27] of 93.2%. The viability, T/C [28] was 88.8%, the viability, T/C [29] was 76.1% and the viability, T/C [30] was 55.4%. It also gave a viability, T/C [31] of 23.4%, a viability, T/C [32] of 30.1% and a viability, T/C [33] of 88%. For the same compound, the viability, T/C [34] was 83.4%, the viability, T/C [35] was 82.7% and the viability, T/C [36] was 50.9%. For the same compound, the viability, T/C [37] was 26.7%, the viability, T/C [38] was 35.2% and the viability, T/C [39] was 79.8%. The viability, T/C [40] was 72.9%, the viability, T/C [41] was 73.7% and the viability, T/C [42] was 46.7%. The viability, T/C [43] was 22.9%, the viability, T/C [44] was 32% and the viability, T/C [45] was 72.7%. The viability, T/C [46] was 81%, the viability, T/C [47] was 74.1% and the viability, T/C [48] was 48.4%. The viability, T/C [49] was 35.5% and the viability, T/C [50] was 35.8%.

COc1cc(C2c3cc4c(cc3C(OC3OC5COC(C)OC5C(O)C3O)C3COC(=O)C23)OCO4)cc(OC)c1O (stereo not given) + Cc1ccccc1N=Nc1ccc(NC(=O)c2ccnn2C)c(C)c1 gave an IC50 (second compound 0.1 µM) of 391 nM, an IC50 (second compound 0.316 µM) of 303 nM and an IC50 (second compound 1 µM) of 309 nM. The IC50 (second compound 3.16 µM) was 249 nM, the IC50 (second compound 10 µM) was 287 nM and the viability, T/C [21] was 89.2%. The viability, T/C [22] was 79.3%, the viability, T/C [23] was 52.3% and the viability, T/C [24] was 33.4%. For the same compound, the viability, T/C [25] was 28%, the viability, T/C [26] was 19.5% and the viability, T/C [27] was 78.4%. For the same compound, the viability, T/C [28] was 87.8%, the viability, T/C [29] was 48.7% and the viability, T/C [30] was 33%. The viability, T/C [31] was 27%, the viability, T/C [32] was 16.9% and the viability, T/C [33] was 79.2%. The viability, T/C [34] was 75.5%, the viability, T/C [35] was 47.2% and the viability, T/C [36] was 29.6%. For the same compound, the viability, T/C [37] was 23.7%, the viability, T/C [38] was 16.4% and the viability, T/C [39] was 68.2%. For the same compound, the viability, T/C [40] was 61.6%, the viability, T/C [41] was 46.4% and the viability, T/C [42] was 33.3%. The viability, T/C [43] was 28%, the viability, T/C [44] was 16% and the viability, T/C [45] was 70.5%. For the same compound, the viability, T/C [46] was 65.5%, the viability, T/C [47] was 43.3% and the viability, T/C [48] was 38.7%. For the same compound, the viability, T/C [49] was 31.8% and the viability, T/C [50] was 18.5%.

CCN(c1cc(-c2ccc(CN3CCOCC3)cc2)cc(C(=O)NCc2c(C)cc(C)[nH]c2=O)c1C)C1CCOCC1 + Cc1ccccc1N=Nc1ccc(NC(=O)c2ccnn2C)c(C)c1 was tested, and the IC50 (second compound 0.1 µM) was greater than 3000 nM, the IC50 (second compound 0.316 µM) was greater than 3000 nM and the IC50 (second compound 1 µM) was greater than 3000 nM. It also gave an IC50 (second compound 3.16 µM) greater than 3000 nM, an IC50 (second compound 10 µM) greater than 3000 nM and a viability, T/C [1] of 123%. It also gave a viability, T/C [2] of 113%, a viability, T/C [3] of 111% and a viability, T/C [4] of 93.2%. For the same compound, the viability, T/C (second compound 0.1 µM, first compound 0.949 µM) was 96.2%, the viability, T/C (second compound 0.1 µM, first compound 3 µM) was 93.3% and the viability, T/C [5] was 100%. The viability, T/C [6] was 111%, the viability, T/C [7] was 106% and the viability, T/C [8] was 103%. For the same compound, the viability, T/C (second compound 0.316 µM, first compound 0.949 µM) was 108%, the viability, T/C (second compound 0.316 µM, first compound 3 µM) was 94.8% and the viability, T/C [9] was 102%. It also gave a viability, T/C [10] of 101%, a viability, T/C [11] of 94.9% and a viability, T/C [12] of 90%. It also gave a viability, T/C (second compound 1 µM, first compound 0.949 µM) of 98.7%, a viability, T/C (second compound 1 µM, first compound 3 µM) of 93.2% and a viability, T/C [13] of 82.4%. It also gave a viability, T/C [14] of 100%, a viability, T/C [15] of 81.9% and a viability, T/C [16] of 90.2%. It also gave a viability, T/C (second compound 3.16 µM, first compound 0.949 µM) of 91.8%, a viability, T/C (second compound 3.16 µM, first compound 3 µM) of 93.6% and a viability, T/C [17] of 88.4%. The viability, T/C [18] was 89.6%, the viability, T/C [19] was 82% and the viability, T/C [20] was 87%. It also gave a viability, T/C (second compound 10 µM, first compound 0.949 µM) of 77.5% and a viability, T/C (second compound 10 µM, first compound 3 µM) of 84.8%.
